Measured values taken from paper PMC7377239, “Cardiovascular Effects of Polychlorinated Biphenyls and Their Major Metabolites” (Environmental Health Perspectives, 2020).

Experiments:
[1] = test system: iPSC-CMs, iPSC-ECs and HUVECs phenotypes; assay: ToxPi 2.0 integration of POD values and physicochemical descriptors; set-up: species or system human; conditions: ToxPi-scaled (0-1) score; for huvec.cyto.24hr / huvec.mito.24hr / huvec.mitoint.24hr / huvec.nma.24hr / huvec.tc.24hr / huvec.mtl.18hr / huvec.tlps.18hr / huvec.tta.18hr / huvec.ttl.18hr: HUVECs; for huvec.mtl.18hr / huvec.tlps.18hr / huvec.tta.18hr / huvec.ttl.18hr / endo.mtl.18hr / endo.tlps.18hr / endo.tta.18hr / endo.ttl.18hr: tube formation; for cm.amp.avg.90min / cm.amp.cv.90min / cm.bpm.90min / cm.cam.90min / cm.decay.rise.90min / cm.mii.90min / cm.mito.90min / cm.spacing.cv.90min / cm.tc.90min / cm.amp.avg.24hrs / cm.amp.cv.24hrs / cm.bpm.24hrs / cm.cam.24hrs / cm.decay.rise.24hrs / cm.mii.24hrs / cm.mito.24hrs / cm.spacing.cv.24hrs / cm.tc.24hrs: iPSC cardiomyocytes; for endo.cyto.24hr / endo.mito.24hr / endo.mitoint.24hr / endo.nma.24hr / endo.tc.24hr / endo.mtl.18hr / endo.tlps.18hr / endo.tta.18hr / endo.ttl.18hr: iPSC endothelial cells
Procedure, shortened: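 Phenotypic readouts in iPSC-cardiomyocytes, iPSC-endothelial cells and HUVECs were normalised to 0.5% DMSO vehicle and fitted to a four-parameter logistic model. POD set at one SD cutoff of vehicle means, with 100 μM assigned when no response. PODs and physicochemical descriptors combined in ToxPi 2.0 scores.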

[2] = test system: porcine pulmonary artery–derived EC; set-up: method as in Hennig et al. 2002, 2005; Toborek et al. 1995; conditions: ref Hennig et al. 2002, 2005, Toborek et al. 1995; cited from earlier work
ryanodine receptor (RyR) = test system: ryanodine receptor (RyR); set-up: method as in Wong et al. 2001, 1997; Wong and Pessah 1997; conditions: mechanism involving the ryanodine receptor; ref Wong et al. 2001, 1997; Wong and Pessah 1997; cited from earlier work
zebrafish = test system: zebrafish; set-up: method as in Li et al. 2014; Teixidó et al. 2019; conditions: ref Li et al. 2014; Teixidó et al. 2019; cited from earlier work

SMILES	huvec.cyto.24hr [1]	huvec.mito.24hr [1]	huvec.mitoint.24hr [1]	huvec.nma.24hr [1]	huvec.tc.24hr [1]	huvec.mtl.18hr [1]	huvec.tlps.18hr [1]	huvec.tta.18hr [1]	huvec.ttl.18hr [1]	cm.amp.avg.90min [1]	cm.amp.cv.90min [1]	cm.bpm.90min [1]	cm.cam.90min [1]	cm.decay.rise.90min [1]	cm.mii.90min [1]	cm.mito.90min [1]	cm.spacing.cv.90min [1]	cm.tc.90min [1]	cm.amp.avg.24hrs [1]	cm.amp.cv.24hrs [1]	further results
Clc1cc(Cl)c(-c2cc(Cl)c(Cl)cc2Cl)cc1Cl [PCB 153, 2,2′,4,4′,5,5′-hexachlorobiphenyl]	0.8978	0.5815	0.9487	0.5857	0.8978	0.3619	0.09107	0.4811	1	0.6441	0.2203	0.7602	0.6527	0.5479	0	0.6603	0.07557	0.6003	0	0.175	cm.bpm.24hrs [1]: 0.4569; cm.cam.24hrs [1]: 0.2888; cm.decay.rise.24hrs [1]: 0.5277; cm.mii.24hrs [1]: 0.2429; cm.mito.24hrs [1]: 0.486; cm.spacing.cv.24hrs [1]: 0.2007; cm.tc.24hrs [1]: 0.5053; endo.cyto.24hr [1]: 0.2934; endo.mito.24hr [1]: 0.2934; endo.mitoint.24hr [1]: 1; endo.nma.24hr [1]: 0.08276; endo.tc.24hr [1]: 0.1249; endo.mtl.18hr [1]: 1; endo.tlps.18hr [1]: 0.6326; endo.tta.18hr [1]: 0.297; endo.ttl.18hr [1]: 0.4748; EC toxicity [2]: much less potent
Clc1ccc(Cl)c(-c2c(Cl)ccc(Cl)c2Cl)c1 [PCB 95, 2,2′,3,5′,6-pentachlorobiphenyl]	0.9485	1	0.5155	0.5037	0.9485	0.5568	0	0	0	0.3275	0.6707	0.7438	0.4148	0.1633	0	0.3775	0.2342	0.3895	0	0.2056	cm.bpm.24hrs [1]: 1; cm.cam.24hrs [1]: 0.3236; cm.decay.rise.24hrs [1]: 0.2316; cm.mii.24hrs [1]: 0.3974; cm.mito.24hrs [1]: 0.5198; cm.spacing.cv.24hrs [1]: 0.1862; cm.tc.24hrs [1]: 0.5603; endo.cyto.24hr [1]: 0; endo.mito.24hr [1]: 0; endo.mitoint.24hr [1]: 0; endo.nma.24hr [1]: 0; endo.tc.24hr [1]: 0; endo.mtl.18hr [1]: 0.07537; endo.tlps.18hr [1]: 0.09893; endo.tta.18hr [1]: 0.06557; endo.ttl.18hr [1]: 0.054; cellular calcium release (ryanodine receptor (RyR)): sensitizing cellular calcium release
Clc1ccc(-c2cc(Cl)c(Cl)c(Cl)c2)cc1Cl [PCB 126, 3,3′,4,4′,5-pentachlorobiphenyl]	0.3035	0	0	0	0.3035	0	0	0	0	0.3003	0	0.8534	0	1	0	0	0	0	0.3868	0.06292	cm.bpm.24hrs [1]: 0.6773; cm.cam.24hrs [1]: 0.3565; cm.decay.rise.24hrs [1]: 1; cm.mii.24hrs [1]: 0; cm.mito.24hrs [1]: 0.557; cm.spacing.cv.24hrs [1]: 0.3424; cm.tc.24hrs [1]: 0.6297; endo.cyto.24hr [1]: 1; endo.mito.24hr [1]: 1; endo.mitoint.24hr [1]: 0.315; endo.nma.24hr [1]: 0; endo.tc.24hr [1]: 1; endo.mtl.18hr [1]: 0.1325; endo.tlps.18hr [1]: 0.4903; endo.tta.18hr [1]: 0.1238; endo.ttl.18hr [1]: 0.0871; cardiovascular toxicity in zebrafish (zebrafish): pericardial edema, cardiac looping defects, and circulatory failure; EC toxicity [2]: potent inducers of EC toxicity
COc1ccc(-c2ccc(Cl)cc2)cc1 [4'-OMe-PCB 3, 4′-methoxy-4-chlorobiphenyl]	0.2539	0.3347	0.2259	0.5435	0.2539	0.5905	0.1332	0.4823	0.3839	0.148	0.2333	0.4231	0	0	0	0	0.06946	0	0.1468	0	cm.bpm.24hrs [1]: 0.4274; cm.cam.24hrs [1]: 0.02517; cm.decay.rise.24hrs [1]: 0.569; cm.mii.24hrs [1]: 0; cm.mito.24hrs [1]: 0; cm.spacing.cv.24hrs [1]: 0.5026; cm.tc.24hrs [1]: 0; endo.cyto.24hr [1]: 0; endo.mito.24hr [1]: 0; endo.mitoint.24hr [1]: 0.218; endo.nma.24hr [1]: 0; endo.tc.24hr [1]: 0; endo.mtl.18hr [1]: 0.3533; endo.tlps.18hr [1]: 0.3362; endo.tta.18hr [1]: 0.2327; endo.ttl.18hr [1]: 0.2433
Clc1ccc(Cl)c(-c2c(Cl)ccc(Cl)c2Cl)c1Cl [(+)-PCB 136, 2,2′,3,3′,6,6′-hexachlorobiphenyl]	0.7118	0.6728	1	0.5111	0.7118	0.4492	0	0	0	0.6409	0.2396	0.7987	0.4781	0.1898	0.5827	0.4679	0.07704	0.4097	0.5612	0.5448	cm.bpm.24hrs [1]: 0.7213; cm.cam.24hrs [1]: 0.5816; cm.decay.rise.24hrs [1]: 0.9212; cm.mii.24hrs [1]: 0.1793; cm.mito.24hrs [1]: 0.8542; cm.spacing.cv.24hrs [1]: 0.7501; cm.tc.24hrs [1]: 1; endo.cyto.24hr [1]: 0.1692; endo.mito.24hr [1]: 0.1692; endo.mitoint.24hr [1]: 0.294; endo.nma.24hr [1]: 0; endo.tc.24hr [1]: 0.1732; endo.mtl.18hr [1]: 0.04754; endo.tlps.18hr [1]: 0.448; endo.tta.18hr [1]: 0.8586; endo.ttl.18hr [1]: 0.8499
